# Details: in vivo
# Text: Due to its simple nature, the dipeptide is rather inexpensive to manufacture.
smiles,measurement,value
"CC[C@H](C)[C@H](N)C(=O)N[C@@H](Cc1c[nH]c2ccccc12)C(=O)O [Ile-Trp, L-Ile-L-Trp]",significant side effects from the use of the dipeptide,not found any significant side effects

# — patent publication US6139862A, “Pharmaceutical dipeptide compositions and methods of use thereof” (priority 1998, dated 2000)
